Consider eight compounds from ChEMBL document CHEMBL4725408, “Antibacterial Spiropyrimidinetriones with N-Linked Azole Substituents on a Benzisoxazole Scaffold Targeting DNA Gyrase” (J Med Chem, 2020).

Molecules are shown by their SMILES. Converted amounts (≈) assume the structure as drawn. Some results are limits rather than exact numbers.

A short description of series [1]: Inhibition of recombinant Escherichia coli DNA gyrase AB expressed in Escherichia coli BL21 (DE3) using relaxed pJT519 DNA as substrate preincubated for 20 mins followed by 5'-BODIPY-TMR-TTCTTCTTCT addition and measured after 1 hr by fluorescence anisotropy. A general note: Fluorescence polarisation rises when a labelled molecule tumbles more slowly, as on binding a larger partner.

Series [2] is described as follows: n-octanol/phosphate buffer partition coefficient, log D of the compound at pH 7.4 measured after 1 hr by UV-LC/MS based shake flask method. It counts as physicochemical.
Series [3] in a line: Solubility of the compound by high throughput solubility assay. Type of series: physicochemical.
A short description of series [4]: Protein binding in human plasma assessed as unbound fraction at 10 uM measured after 16 hrs by LC-MS/MS based equilibrium dialysis method. It counts as ADME, cell-free.
Series [5] concerns Staphylococcus aureus. Description: Antibacterial activity against methicillin sensitive Staphylococcus aureus ARC516 by broth microdilution method. Type of series: functional. For orientation: In broth dilution the organism is exposed to a series of concentrations in liquid medium.
For series [6], the system named is Staphylococcus aureus. As to the kind of experiment: Antibacterial activity against methicillin sensitive Staphylococcus aureus ARC516 in presence of human serum by broth microdilution method. It counts as functional.
Series [7] deals with Staphylococcus aureus. As to the kind of experiment: Antibacterial activity against methicillin/quinolone-resistant Staphylococcus aureus ARC517 by broth microdilution method. It counts as functional.
Series [8] can be described thus: Ratio of MIC for antibacterial activity against methicillin/quinolone-resistant Staphylococcus aureus ARC517 to protein binding in human plasma assessed as unbound fraction.
The test system of series [9] is Escherichia coli. As to the kind of experiment: Antibacterial activity against Escherichia coli ARC523 by broth microdilution method. Type of series: functional.
Series [10] relates to Streptococcus pneumoniae. Description: Antibacterial activity against Streptococcus pneumoniae ARC548 by broth microdilution method. It counts as functional.
Series [11] relates to Streptococcus pyogenes. Description: Antibacterial activity against Streptococcus pyogenes ARC838 by broth microdilution method. It counts as functional.
Series [12] has as its system Haemophilus influenzae. As to the kind of experiment: Antibacterial activity against Haemophilus influenzae ARC737 by broth microdilution method. It counts as functional.
For series [13], the system named is L5178Y. Description: Genotoxicity in mouse L5178Y cells using DAPI staining by microscopy based micronucleation assay. Type of series: toxicity, cell-based.

Consider `CNS(=O)(=O)c1cnn(-c2noc3c(F)c4c(cc23)CC2(C(=O)NC(=O)NC2=O)[C@H]2[C@H](C)O[C@H](C)CN42)c1`, for which the IC50 (in general, the concentration at which inhibition is half-maximal) in series [1] amounted to 0.61 µM. For the same compound, in series [2], the logD (as a rule, lipophilicity at a set pH, counting ionised and neutral species) at 1 h is 2.2. In addition, in series [3], the solubility – broadly, the concentration that dissolves in the medium under given conditions – amounted to 21 µM (≈ 11.5 µg/mL). Further, in series [4], the fraction unbound (usually free concentration divided by total concentration) at 16 h, 10 µM was found to be 0.068. The MIC is 0.39 µM (≈ 0.214 µg/mL) in series [5], 1.6 µM in [6], 1.56 µM (≈ 0.854 µg/mL) in [7] and 50 µM (≈ 27.4 µg/mL) in series [9]. For the same compound, the Ratio in [8] is recorded as 23.

Consider `C[C@@H]1CN2c3c(cc4c(-n5cnnc5)noc4c3F)CC3(C(=O)NC(=O)NC3=O)[C@H]2[C@H](C)O1`, for which the IC50 in [1] was 0.3 µM. The same compound showed a pH-dependent lipophilicity (logD) at 1 h in series [2] of 0.54. In series [3], this compound showed a solubility greater than 1000 µM. In [4], the fraction unbound at 16 h, 10 µM came out at 0.34. Further, the MIC in series [5] is 6.25 µM (≈ 2.85 µg/mL); in series [6], 12.5 µM; in [7] it was 25 µM (≈ 11.4 µg/mL); in series [9], greater than 200 µM. In addition, the Ratio in series [8] is reported as 74.

Consider `C[C@@H]1CN2c3c(cc4c(-n5cccn5)noc4c3F)CC3(C(=O)NC(=O)NC3=O)[C@H]2[C@H](C)O1` (racemic), for which the logD at 1 h in [2] turned out to be 3. This compound showed a solubility in [3] of 29 µM (≈ 13.2 µg/mL). Also, the fraction unbound at 16 h, 10 µM in series [4] was less than 0.01. Further, the MIC in series [5] came to 0.39 µM (≈ 0.177 µg/mL); in series [6], 3.1 µM; in series [7] it was 0.78 µM (≈ 0.354 µg/mL); in [9] it was 25 µM (≈ 11.4 µg/mL). Besides, the Ratio in series [8] was greater than 80.

As for `C[C@@H]1CN2c3c(cc4c(-n5ccnn5)noc4c3F)CC3(C(=O)NC(=O)NC3=O)[C@H]2[C@H](C)O1`, the IC50 in series [1] turned out to be 0.22 µM. Besides, in series [2], the logD at 1 h was 2. The amount in solution in [3] (solubility) came to 130 µM (≈ 59.2 µg/mL). Besides, in [4], the fraction unbound at 16 h, 10 µM is 0.054. The MIC in series [5] came to 0.068 µM (≈ 0.031 µg/mL); in series [6] it was 0.78 µM; in series [7], 0.39 µM (≈ 0.178 µg/mL); in [9], 6.25 µM (≈ 2.85 µg/mL). Also, in series [8], the Ratio came out at 7.2.

With `C[C@@H]1CN2c3c(cc4c(-n5cc(C#N)cn5)noc4c3F)CC3(C(=O)NC(=O)NC3=O)[C@H]2[C@H](C)O1`, the IC50 in series [1] came out at 0.4 µM. Further, in series [2], the logD at 1 h is 2.4. The same compound showed a solubility in [3] of 10 µM (≈ 4.79 µg/mL). Besides, the fraction unbound at 16 h, 10 µM in series [4] turned out to be 0.044. For the same compound, the MIC in series [5] is less than 0.2 µM; in series [6], 0.39 µM; in series [7], 0.2 µM (≈ 0.0959 µg/mL); in series [9], 25 µM (≈ 12 µg/mL). Further, in series [8], the Ratio is on record as 4.5.

Turning to `C[C@@H]1CN2c3c(cc4c(-n5ccnc5)noc4c3F)CC3(C(=O)NC(=O)NC3=O)[C@H]2[C@H](C)O1` (racemic), the IC50 in [1] was found to be 0.49 µM. Also, the logD at 1 h in series [2] is 2. Also, the solubility in series [3] turned out to be 12 µM (≈ 5.45 µg/mL). Further, the fraction unbound at 16 h, 10 µM in series [4] was determined as 0.031. Besides, the MIC in [5] worked out at 1.56 µM (≈ 0.709 µg/mL); in series [6], 12.5 µM; in [7], 12.5 µM (≈ 5.68 µg/mL); in [9] it was 50 µM (≈ 22.7 µg/mL). Besides, the Ratio in series [8] was determined as 400.

Regarding `C[C@@H]1CN2c3c(cc4c(-n5ncnc5NCC(=O)N5CC[C@H](N(C)C)C5)noc4c3F)CC3(C(=O)NC(=O)NC3=O)[C@H]2[C@H](C)O1`, in [1], the IC50 was found to be 0.18 µM. In series [2], this compound showed a logD at 1 h of 1.7. For the same compound, the solubility in [3] is 880 µM (≈ 550 µg/mL). In series [4], the fraction unbound at 16 h, 10 µM is 0.26. In addition, the MIC in series [5] was 0.2 µM (≈ 0.125 µg/mL); in [6] it was 0.2 µM; in [7], 2.2 µM (≈ 1.37 µg/mL); in series [9], 50 µM (≈ 31.2 µg/mL); in series [10] it was less than 0.2 µM; in series [11], 0.39 µM (≈ 0.244 µg/mL). The compound further returned an MIC in [12] of 1.6 µM (≈ 0.999 µg/mL). The NOAEL (as a rule, the highest dose or exposure tested at which no adverse effect was seen) in [13] worked out at 12 µM.

As for `C[C@@H]1CN2c3c(cc4c(-n5nccn5)noc4c3F)CC3(C(=O)NC(=O)NC3=O)[C@H]2[C@H](C)O1`, the half-maximal inhibitory concentration (IC50) in series [1] was found to be 0.24 µM. In series [2], this compound gave a logD at 1 h of 1.95. The solubility in series [3] amounted to 810 µM (≈ 369 µg/mL). The fraction unbound at 16 h, 10 µM in [4] was determined as 0.031. In addition, the MIC in [5] was less than 0.2 µM; in series [6] it was 1.56 µM; in series [7] it was 0.78 µM (≈ 0.355 µg/mL); in [9], 12.5 µM (≈ 5.69 µg/mL). Also, the Ratio in series [8] came to 25.
